Biological target: T1, HCV NS3 helicase NS3h_1b(con1) (Hepatitis C virus genotype 1b, UniProt Q9WMX2)
T1 construct: truncated C-terminally His-tagged NS3 proteins lacking the N-terminal protease, called NS3h; His-tag (C); made in house
Assay: MBHA screen of NCI mechanistic set library at 20 μM (percent inhibition, compound interference)
Format: biochemical
Conditions: compounds at 20 μM; for Inh. (%) (Inhibition): calculated from Equation 1
Outline: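 Molecular beacon-based DNA unwinding assay; compounds screened at 20 μM in triplicate, with DMSO-only negative and 500 nM dT20 positive controls. Fluorescence (ex 643/em 670 nm) was read before and 30 min after adding ATP to 1 mM. Percent inhibition came from the change relative to DMSO controls; interference from pre-ATP fluorescence versus DMSO controls.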

[1] = MBHA with DNA substrate, assay interference calculated with Equation 2
[2] = assay interference calculated with Equation 2 (fluorescence vs DMSO-only controls before ATP)

T1 sequence (Q9WMX2 1192-1657): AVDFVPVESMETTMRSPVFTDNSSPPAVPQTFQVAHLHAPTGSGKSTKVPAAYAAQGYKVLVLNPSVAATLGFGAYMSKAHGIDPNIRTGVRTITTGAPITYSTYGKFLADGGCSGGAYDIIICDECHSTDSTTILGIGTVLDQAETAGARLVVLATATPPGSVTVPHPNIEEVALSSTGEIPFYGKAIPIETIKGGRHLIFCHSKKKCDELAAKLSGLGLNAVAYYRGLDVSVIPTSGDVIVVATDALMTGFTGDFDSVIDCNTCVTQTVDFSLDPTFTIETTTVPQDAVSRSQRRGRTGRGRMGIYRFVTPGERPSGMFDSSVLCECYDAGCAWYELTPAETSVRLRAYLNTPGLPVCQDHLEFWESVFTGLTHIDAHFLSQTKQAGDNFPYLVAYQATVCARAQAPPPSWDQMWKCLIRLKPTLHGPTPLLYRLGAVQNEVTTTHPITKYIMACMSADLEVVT

Int.* (Ratio) (Interference) [1] | Inh. (%) (Inhibition) (MBHA with DNA substrate) | Inh. (%) (Inhibition) (MBHA with a DNA substrate) | Int.* (Ratio) (Interference) [2] | Inh. (%) (Inhibition) (MBHA with DNA substrate, 20 µM) | Structure (SMILES)
1.02 | −11.7 | – | – | – | COc1ccc2c(c1[N+](=O)[O-])CC[C@@H]1[C@@H]2CC[C@]2(C)C(=O)CC[C@@H]12 [Compound 321803]
– | – | −21.9 | 0.82 | – | Cc1c(C(=O)C/C(=N\O)C(=O)Nc2cc(Cl)c(Cl)cc2Cl)[n+](=O)c2ccccc2n1[O-] [Compound 635544]
1.07 | −1.8 | – | – | – | Cc1cc(C)c(NC(=O)/C=C/c2ccccc2)c(C)c1 [Compound 191384]
– | – | −22.0 | 1.01 | – | Cc1cc(O)c(C(C)C)cc1C1(c2cc(C(C)C)c(O)cc2C)OC(=O)c2ccccc21 [Compound 2186]
0.77 | 31.7 | – | – | – | CO[C@H]1/C=C\C=C(/C)C(=O)NC2=CC(=O)C(N)=C(C[C@@H](C)C[C@H](OC)[C@H](O)[C@@H](C)/C=C(\C)[C@@H]1OC(N)=O)C2=O [Compound 255109]
0.91 | 21.2 | – | – | – | CCOc1ccccc1NC(=O)CC1Sc2ccccc2NC1=O (stereo not drawn) [Compound 637680]
0.93 | 45.5 | – | – | – | Oc1cc2c3c(c1)c1cc4c(cc1c[n+]3CC2)OCO4.[Cl-] [Compound 338259]
0.93 | −18.5 | – | – | – | CCOC(=O)c1ccc(-c2cc(C)no2)[nH]1 [Compound 693053]
0.95 | −15.9 | – | – | – | CC(C)C1=C(O)C2=C(C(=O)C1=O)C1(C)CCCC(C)(C)C1CC2O (stereo not drawn) [Compound 294577]
0.98 | −10.6 | – | – | – | O=C1Cc2c([nH]c3ccc(Br)cc23)-c2ccccc2N1 [Compound 664704]
– | – | −5.0 | 0.99 | – | Cl.Nc1nc(N)c2ncn(-c3ccccc3)c2n1 [Compound 29603]
– | – | 9.8 | 1.00 | – | C[C@]12C=CC(=O)C=C1[C@@H](F)C[C@H]1[C@@H]3CC[C@](O)(C(=O)CO)[C@@]3(C)C[C@H](O)[C@@]12F [Compound 77021]
1.08 | −9.6 | – | – | – | COC(=O)C1CCC(=O)N1C(c1ccc(OC)cc1)c1cc(OC)c(OC)c(OC)c1 (stereo not drawn) [Compound 673622]
0.90 | −18.3 | – | – | – | COC1/C=C/OC2(C)Oc3c(C)c(O)c4c(c3C2=O)C(=O)C=C(NC(=O)/C(C)=C\C=C\C(C)C(OC=O)C(C)C(O)C(C)C(OC(C)=O)C1C)C4=O (stereo not drawn) [Compound 239375]
0.92 | −14.5 | – | – | – | [O-][S+]1c2ccccc2N=C(c2cccc3ccccc23)CC1c1cccc2ccccc12 (stereo not drawn) [Compound 634926]
– | – | 8.9 | 1.18 | – | Cc1c2ccncc2c(C)c2c1sc1ccccc12 [Compound 119686]
0.90 | 1.2 | – | – | – | CC(=O)c1sc2c(c1OC(=O)c1ccc(Cl)cc1Cl)c(=O)n(-c1ccccc1)c(=S)n2-c1ccccc1 [Compound 671136]
0.29 | 5.0 | – | – | – | CC(=O)O.Cc1c2cc[n+](CCN3CCCCC3)cc2c(C)c2c1[nH]c1ccc(O)cc12 [Compound 311153]
1.32 | −13.9 | – | – | – | C=C(C)[C@@H]1CC[C@]2(CO)CC[C@]3(C)[C@H](CC[C@@H]4[C@@]5(C)CC[C@H](O)C(C)(C)[C@@H]5CC[C@]43C)[C@@H]12 [Compound 4644]
1.04 | −16.0 | – | – | – | Cc1ccc(CC2(OCCN(C)C)CCC(C(C)(C)C)CC2)cc1.O=C(O)/C=C/C(=O)O (stereo not drawn) [Compound 670225]
0.94 | −11.6 | – | – | – | C1CN(c2nnc(N3CCC3)nn2)C1 [Compound 625748]
– | – | 9.0 | 0.99 | – | CC1(O)C=CC(=O)C=C1 [Compound 295156]
– | – | −26.4 | 0.98 | – | C/C(=N\Nc1nc2ccccc2s1)c1ccncn1 [Compound 693632]

Second part, the molecule before the results:

Structure (SMILES) | Int.* (Ratio) (Interference) [1] | Inh. (%) (Inhibition) (MBHA with DNA substrate) | Inh. (%) (Inhibition) (MBHA with a DNA substrate) | Int.* (Ratio) (Interference) [2] | Inh. (%) (Inhibition) (MBHA with DNA substrate, 20 µM)
CO[C@@H]1[C@H](O)C[C@@H](O[C@@H]2C[C@H](Oc3cc4cc5c(c(O)c4c(O)c3C)C(=O)[C@@H](O[C@H]3C[C@@H](O[C@H]4C[C@@H](O[C@H]6C[C@](C)(O)[C@@H](OC(C)=O)[C@H](C)O6)[C@H](O)[C@@H](C)O4)[C@H](O)[C@@H](C)O3)[C@H]([C@H](OC)C(=O)[C@@H](O)[C@@H](C)O)C5)O[C@H](C)[C@@H]2OC(C)=O)O[C@@H]1C [Compound 58514] | 1.04 | 54.9 | – | – | –
COc1cc2oc(=O)cc(C)c2cc1[N+](=O)[O-] [Compound 299879] | 0.94 | 20.5 | – | – | –
Cn1c(=O)[nH]c2nncnc2c1=O [Compound 99733] | 1.02 | −17.9 | – | – | –
Cc1cc(N)c2ccccc2[n+]1CCCCCCCCCC[n+]1c(C)cc(N)c2ccccc21.[Cl-].[Cl-] [Compound 166454] | 0.18 | 60.4 | – | – | –
COc1cc(O)c(Cc2ccccc2O)c(O)c1C(=O)CCc1ccccc1 [Compound 241906] | – | – | −6.2 | 0.88 | –
Cc1c(N=Cc2ccc(N(CCC#N)CCC#N)cc2)c(=O)n(-c2ccccc2)n1C [Compound 620280] | – | – | −30.3 | 1.01 | –
CN(C)CCOC1(Cc2ccc(F)cc2)CCC(C(C)(C)C)CC1.O=C(O)/C=C/C(=O)O (stereo not drawn) [Compound 670226] | 1.11 | −2.6 | – | – | –
COC(C(=O)C(O)C(C)O)C1Cc2cc3cc(OC4CC(OC5CC(O)C(O)C(C)O5)C(O)C(C)O4)c(C)c(O)c3c(O)c2C(=O)C1OC1CC(OC2CC(OC3CC(O)C(OC)C(C)O3)C(O)C(C)O2)C(O)C(C)O1 (stereo not drawn) [Compound 269146] | 0.89 | 15.0 | – | – | –
CC12C(=O)OC(=O)C1(C)C1CCC2O1 (stereo not drawn) [Compound 61805] | 0.95 | −0.5 | – | – | –
CC[C@@]1(O)C[C@H](O)c2c(O)c3c(c(O)c2[C@H]1C(=O)OC)C(=O)c1cccc(O)c1C3=O [Compound 196524] | 1.02 | 3.3 | – | – | –
NC(=Nc1nc(-c2ccccn2)cc2ccccc12)c1ccccn1 [Compound 637578] | – | – | 7.9 | 0.97 | –
C=C(C)C(=O)OC1CCC2(C)C(CCC3C2CCC2(C)C(c4ccc(=O)oc4)CC4OC432)C1 (stereo not drawn) [Compound 267712] | – | – | −22.8 | 1.09 | –
COc1ccc(S(=O)(=O)N/N=C/C(=O)O)cc1 [Compound 267213] | 1.05 | 2.9 | – | – | –
O=S(=O)(O)c1cc(N=Nc2cc(S(=O)(=O)O)c3ccccc3c2O)ccc1/C=C/c1ccc(N=Nc2cc(S(=O)(=O)O)c3ccccc3c2O)cc1S(=O)(=O)O.[Na+] [Compound 34931] | 0.90 | 89.2 | – | – | –
O=C(O)c1ccccc1-c1ccccc1C(=O)Nc1ccc2c(c1)Cc1ccccc1-2 [Compound 67690] | 1.16 | −9.5 | – | – | –
N#CCCN(CCC#N)c1ccc(C=Nc2ccc(F)cc2)cc1 [Compound 620277] | 0.93 | 17.1 | – | – | –
CCCn1c(=O)c2ccccc2[n+]2c(-c3ccc([N+](=O)[O-])cc3)csc12.[Br-] [Compound 657603] | 0.94 | −15.1 | – | – | –
C=C1CC[C@@H]2[C@](C)(CO)[C@H](O)CC[C@@]2(C)[C@@H]1C/C=C1/C(=O)OC[C@H]1O [Compound 383468] | – | – | 9.4 | 0.98 | –
C=C1C(=O)OCC2C(C(=O)O)=CC3C(C)C(C)=CC123 (stereo not drawn) [Compound 145150] | 1.12 | −11.3 | – | – | –
CC(C)(Br)C(=O)C(Br)Br [Compound 1027] | – | – | 7.0 | 0.91 | –
O=C1C=C2C=CC3CC2(O1)C1CCCCN31 (stereo not drawn) [Compound 107415] | 0.97 | −15.2 | – | – | –
[Mo] [Compound 622116] | 0.97 | – | – | – | 3.5
C/C(=N\NC(=S)N1CCC1)c1ccccn1 [Compound 319726] | 1.02 | 3.2 | – | – | –
Cc1ccc(NC(=O)c2cccc([N+](=O)[O-])c2O)c(C)c1 [Compound 79456] | 0.97 | −14.5 | – | – | –
[Cl][Cd][Cl] [Compound 51148] | 0.94 | 53.4 | – | – | –
COc1cc2c3c(n(C)c(=O)c2cc1OC)-c1cc2c(cc1C3=O)OCO2 [Compound 314622] | 0.70 | 23.1 | – | – | –
CNC(=S)N/N=C/c1ccc([N+](=O)[O-])s1 [Compound 169543] | – | – | 9.6 | 1.02 | –
Cc1c(Cl)cccc1NC(=O)CC1Sc2ccccc2NC1=O (stereo not drawn) [Compound 634396] | 0.99 | −17.6 | – | – | –

Reference: patent US9464064B2, “HCV helicase inhibitors and methods of use thereof” (University of Kansas, priority 2011, dated 2016)
